Laboratory results published in US6632843B1, “Treatment of bruxism” (priority 2000, dated 2003).

What was measured:
[1] = taken orally; cited from earlier work
[2] = after application
From the text: Cyclobenzaprine is a 5-HT2 receptor antagonist and its muscle relaxant effect is due to inhibition of serotonergic neurons.

Compound: CN(C)CCC=C1c2ccccc2C=Cc2ccccc21 [cyclobenzaprine, Cyclobenzaprine]
- half life [1]: as long as one to three days
- plasma protein binding [1]: highly bound to plasma proteins
- time to clinical improvement [2]: as early as the first 20 minutes
